Laboratory results: patent US20210386812A1, “DEVELOPMENT OF HEALTH FOOD SUPPLEMENTS AND ANTIOXIDANTS FOR CONTROLLING HYPERURICEMIA AND OXIDATIVE STRESS” (Baylor College of Medicine, priority 2018, published 2021)
Several values for one entry are separate records, joined by “and”; a condition that tells them apart may be missing. Equal values may be shown once. Entries after “also recorded” stand apart in the source; their conditions may differ. Read-outs that look alike come from different tables or passages of the source.

Experiments:
XO = conditions: in vitro; cited from earlier work
serum uric acid = assay: Hypouricemic effect in allantoxanamide-treated mice; format: in vivo, C57BL/6 mice; conditions: Allantoxanamide 200 mg/kg i.p., at both 1.5 hours and 3 hours; Allopurinol 13.3 mg/kg, recipe 41.7 and 83.4 mg/kg
Description: Recipe includes Japanese Thistle Extract, Grape Seed Extract, Amla Fruit Extract, Pine Bark Extract, Chinese Mint Extract and Folic acid. Mice were Intraperitoneally (i.p.)-injected with uricase inhibitor allantoxanamide to induce hyperuricemia in mice. […] Blood was taken from facial vein at 1.5 hour and 3 hour after the treatment. Serum uric acid level was measured the next day with a phosphotunstate method. N=4 per group.
Mouse experiment design, method and results. […] Folic acid solution was prepared separately by dissolving 2.6 mg folic acid in 1 ml 0.1 m potassium phosphate buffer, then 6 ul of this FA solution was added to the 10 ml extract solution.
Adult C57BL/6 mice (about 20 g body weight) were used. Four groups of mice (n=4 per group) were assigned for different treatments or controls (Table 12). Intraperitoneal (i.p.) injection of uricase inhibitor allantoxanamide can effectively block the conversion of uric acid to 5-hydroxyisourate and thus cause a marked increase in serum uric acid levels in mice, providing a hyperuricemic animal model (34). […] Blood was taken from facial vein at 1.5 hours and 3 hours after the treatment. Serum uric acid level was measured with a phosphotunstate method.

Xanthine oxidase (XO) [1] = biological target: T1, Xanthine oxidase (XO) (Homo sapiens, UniProt P47989); assay: Xanthine oxidase (XO) inhibition assay in a cell-free system; conditions: for XO activity inhibition (in words): increasing concentrations
Description: All 72 herb extracts (100 g) are in the powder form. Each extract was dissolved in water or DMSO respectively with strong votex, at stock concentration of 50 mg/ml. The solution was kept at room temperature for 30 min before centrifugation at 14k rpm. The clear solution was used for assay of XO inhibitory activity. XO activity was determined using the method of continuous spectrophotometric rate measurements (60). The reaction mixture contained xanthine in 67 mM phosphate buffer (pH 7.4) and 20 nM XO with an activity of 5 uU/mL, with or without extract solution. After pre-incubating the extract (at 0-10 ul) with XO for 1 min at 25° C., 50 uM xanthine was added to initiate the formation of uric acid, and the increase of absorption of uric acid at 295 nm was monitored in a dynamic mode. Initial rate of XO activity was recorded. […] For initial screen of herb extracts, final concentration of each extract was 163 ug/ml. Percentage of inhibition is calculated: Percentage of inhibition=(1−test OD/blank OD)×100
XO inhibition assay for folic acid related molecules is similar to that for herb extracts. Folic acids were dissolved in DMSO. Dose-dependent of folic acids and photolysis effect were studied.
Furthermore, we performed a dose dependent XO inhibition assay for each of these 14 extracts (DMSO-soluble fractions). […] IC50 is an operational parameter defined as the concentration of inhibitor required for achieving 50% inhibition of the enzyme.
Folic acid and its two derivatives, dihydrofolic acid and tetrahydrofolic acid, were employed in the XO inhibition assay. When 20 nM XO was mixed with increasing concentrations of folic acid, dihydrofolic acid and tetrahydrofolic acid.
The initial rate of uric acid formation in the reaction system was recorded; and XO inhibition rate of each herb extract was calculated.
Furthermore, a dose dependent XO inhibition assay was performed for each of these 15 extracts. […] IC50 is an operational parameter defined as the concentration of inhibitor required for achieving 50% inhibition of the enzyme.

[2] = cited from earlier work
Xanthine oxidase (XO) [3] = biological target: T1, Xanthine oxidase (XO); assay: XO inhibition combination assay of herb extract with folic acid or 5-MTHF, added separately without pre-mixing; conditions: read-out: XO activity inhibition
Description: All 14 traditional Chinese medicine herb extracts were tested. Folic acid (0.167 uM) and extract (13.3 ug/ml) were separately added into the XO reaction system without pre-mixing. XO activity was measured.
Fresh prepared 5-MTHF (3.3 uM) and herb extract (13.3 ug/ml) was added to XO reaction system separately, XO activity was recorded.
Eight herbal extracts were selected and tested. Folic acid (0.167 uM) and each extract at a defined concentration (ug/ml) were separately added into the XO reaction system without pre-mixing. XO activity was measured.
Based on the result of dose-dependent XO inhibition experiments for herb extracts and folic acid, a relatively small concentration of each extract (a total of 14 extracts) and folic acid were utilized for a combination assay.
Folic acid (0.167 uM) and extract (13.3 ug/ml) were separately added into the XO reaction system without pre-mixing. XO activity was measured.
The inventors also tested the combination of 5-MTHF with different traditional Chinese medicine herb extracts for their effect on XO activity in vitro (FIG. 10).
Based on the result of dose-dependent XO inhibition experiments for herb extracts and folic acid, a relatively small concentration of each of 8 herbal extracts and folic acid were selected for a combination assay. […] XO activity was measured (FIG. 13).

T1 sequence (P47989 whole entry, species assumed): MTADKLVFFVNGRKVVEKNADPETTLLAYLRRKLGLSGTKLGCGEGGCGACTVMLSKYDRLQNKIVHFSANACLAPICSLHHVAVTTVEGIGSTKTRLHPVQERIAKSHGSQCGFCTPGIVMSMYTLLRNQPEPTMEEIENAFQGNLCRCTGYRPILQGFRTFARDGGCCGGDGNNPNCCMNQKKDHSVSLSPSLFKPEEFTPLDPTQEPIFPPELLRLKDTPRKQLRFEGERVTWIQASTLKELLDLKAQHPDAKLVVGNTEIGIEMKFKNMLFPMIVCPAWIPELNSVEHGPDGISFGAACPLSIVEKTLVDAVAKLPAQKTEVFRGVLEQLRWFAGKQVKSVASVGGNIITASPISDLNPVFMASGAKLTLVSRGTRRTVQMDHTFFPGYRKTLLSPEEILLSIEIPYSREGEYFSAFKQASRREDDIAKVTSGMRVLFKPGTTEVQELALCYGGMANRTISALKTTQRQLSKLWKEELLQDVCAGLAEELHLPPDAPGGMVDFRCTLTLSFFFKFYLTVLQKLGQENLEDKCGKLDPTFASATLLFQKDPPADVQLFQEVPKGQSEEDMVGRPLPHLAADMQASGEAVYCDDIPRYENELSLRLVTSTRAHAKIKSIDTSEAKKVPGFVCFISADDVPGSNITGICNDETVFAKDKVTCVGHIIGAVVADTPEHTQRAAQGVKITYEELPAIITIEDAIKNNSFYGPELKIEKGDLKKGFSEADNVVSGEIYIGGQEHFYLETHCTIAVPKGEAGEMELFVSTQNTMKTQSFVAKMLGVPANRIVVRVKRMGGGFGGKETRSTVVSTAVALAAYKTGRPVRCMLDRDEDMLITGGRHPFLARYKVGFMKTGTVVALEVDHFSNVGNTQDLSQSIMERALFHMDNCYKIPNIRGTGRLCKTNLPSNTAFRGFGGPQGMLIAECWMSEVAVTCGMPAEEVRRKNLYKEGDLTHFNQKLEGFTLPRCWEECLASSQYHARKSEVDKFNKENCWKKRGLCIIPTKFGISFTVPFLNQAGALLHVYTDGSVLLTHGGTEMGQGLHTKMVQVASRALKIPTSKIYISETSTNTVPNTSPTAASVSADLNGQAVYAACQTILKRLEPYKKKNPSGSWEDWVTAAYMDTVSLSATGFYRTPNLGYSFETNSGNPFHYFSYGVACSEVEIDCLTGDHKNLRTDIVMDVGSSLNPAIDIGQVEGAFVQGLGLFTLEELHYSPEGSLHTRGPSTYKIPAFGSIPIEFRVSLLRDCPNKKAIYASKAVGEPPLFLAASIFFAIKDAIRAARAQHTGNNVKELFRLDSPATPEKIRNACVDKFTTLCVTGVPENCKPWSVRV

| XO activity inhibition (in words) (Xanthine oxidase (XO) [1]; 20 nM XO) | SMILES | XO inhibitory effect (literature) (XO) | XO inhibitory potency relative to a comparator (in words) (Xanthine oxidase (XO) [1]; cell-free system) | also measured |
| --- | --- | --- | --- | --- |
| – | Nc1nc2ncc(C=O)nc2c(=O)[nH]1 [6-formyl pterin] | very potent XO inhibitor | – | – |
| – | Oc1ncnc2[nH]ncc12 [Allopurinol] | – | – | Serum uric acid levels (serum uric acid): significantly reduced serum uric acid levels |
| – | O=Cc1cc(O)c(O)c([N+](=O)[O-])c1 [DHNB, 3,4-Dihydroxy-5-nitrobenzaldehyde] | – | – | IC50 (Xanthine oxidase (XO) [1]): 3 µM |
| significantly inhibited XO activity | Nc1nc2c(c(=O)[nH]1)N=C(CNc1ccc(C(=O)N[C@@H](CCC(=O)O)C(=O)O)cc1)CN2 [dihydrofolic acid] | stronger than that of folic acid | dihydrofolic acid>tetrahydrofolic>folic acid | XO inhibitory potency relative to a comparator (in words) (Xanthine oxidase (XO) [1]; cell-free system, listed as Dihydrofolic acid): more potent than folic acid |
| – | Cc1nc(-c2ccc(OCC(C)C)c(C#N)c2)sc1C(=O)O [febuxostat] | – | – | Patients with transaminase elevations greater than three times the upper limit of normal ([2]; in some studies): 2-3%; Patients with cutaneous adverse effects ([2]; initial clinical studies): about 2% |
| significantly inhibited XO activity | Nc1nc2ncc(CNc3ccc(C(=O)N[C@@H](CCC(=O)O)C(=O)O)cc3)nc2c(=O)[nH]1 [folic acid] | – | stronger than Allopurinol and DHNB | IC50 (Xanthine oxidase (XO) [1]): 0.75 µM; inhibition at 0.167 µM (Xanthine oxidase (XO) [3]): 16.5% |
| – | Nc1nc2ncc(C(=O)O)nc2c(=O)[nH]1 [pterin-6-carboxylic acid] | no XO inhibitory effect | – | – |
| significantly inhibited XO activity | Nc1nc2c(c(=O)[nH]1)NC(CNc1ccc(C(=O)N[C@@H](CCC(=O)O)C(=O)O)cc1)CN2 (stereo partly drawn) [tetrahydrofolic acid] | stronger than that of folic acid | more potent than folic acid | XO inhibitory potency relative to a comparator (in words) (Xanthine oxidase (XO) [1]; cell-free system, listed as tetrahydrofolic): dihydrofolic acid>tetrahydrofolic>folic acid |

| SMILES | XO activity inhibition (in words) (Xanthine oxidase (XO) [1]; 20 nM XO) | XO inhibitory effect (literature) (XO) | XO inhibitory potency relative to a comparator (in words) (Xanthine oxidase (XO) [1]; cell-free system) | also measured |
| --- | --- | --- | --- | --- |
| CN1c2c(nc(N)[nH]c2=O)NCC1CNc1ccc(C(=O)N[C@@H](CCC(=O)O)C(=O)O)cc1 (stereo partly drawn) [Extract 5-MTHF, 5-methyl tetrahydrofolate] | effectively inhibited XO activity; also recorded: inhibited XO activities in a concentration-dependent manner | – | weaker than folic acid | IC50 (Xanthine oxidase (XO) [1]; read-out: IC50 for XO inhibition, 20 nM XO, cell-free system): ~35.6 µM and 35.6 µM |
